The assay deals with Mycobacterium tuberculosis replicating, CFU count, imaging. Nature of the assay: M. tuberculosis CFU reduction, CFU imaging, dry powder, dose response (AID 743485).

For the molecule `Cn1c(NC(=O)c2ccccc2)nc2c3ncccc3ccc21`, the AC90 was less than 8 µM. In the case of `Cn1c(NC(=O)c2ccccc2)nc2c3ccncc3ccc21` it was less than 8 µM; in that of `Cn1c(NC(=O)c2ccccc2)nc2c3cnccc3ccc21`, less than 8 µM; in that of `Cn1c(NC(=O)c2ccccc2)nc2c3nccnc3ccc21`, less than 16 µM.

These data come from PubChem BioAssay AID743485 (Broad Institute, 2014).
